Results as given in patent publication US9701672B2, “Dihydropyridinone MGAT2 inhibitors for use in the treatment of metabolic disorders” (BRISTOL-MYERS SQUIBB COMPANY, priority 2014, dated 2017).
pIC50: −log10 of the molar value.

Each compound was assayed against human MGAT-2 (Homo sapiens (Human), UniProt Q3SYC2) (assay: MGAT LCMS assay (h-MGAT LCMS)). Conditions: human MGAT2 membranes expressed in Sf9 cells; 100 μM 2-oleoylglycerol, 15 μM oleoyl-coenzyme A.
Type: biochemical
Method: The MGAT enzyme reactions were performed in Corning FALCON® 96-well polypropylene plates, in a total volume of 60 μL of 50 mM potassium phosphate buffer pH 7.4, containing a final concentration of 100 μM 2-oleoylglycerol, 15 μM oleoyl-coenzyme A and 0.0013 μg/μL human or mouse MGAT-2 or 0.0026 μg/μL rat recombinant MGAT-2 membranes expressed in Sf9 cells. Assay plates were run through a fully automated robotics system and shaken for 5 seconds every minute for a total 10 minutes. The reactions were then quenched with 120 μL of ice cold methanol containing 1 μg/mL 1,2-distearoyl-rac-glycerol as the internal standard. Plates were shaken for 2 minutes and spun down to remove protein precipitation. After the spin, samples were transferred to LC/MS compatible PCR plates. For LC/MS analysis, a ThermoFisher Surveyor pump, utilizing a Waters […]® C8, 50×2.1 mm column, was used for the chromatography of enzyme products. The buffer system consists of 0.1% formic acid in water with a mobile phase consisting 0.1% formic acid in methanol. The shallow gradient is 90-100% mobile phase in 0.2 min with a total run time of 2.3 min. The first 0.5 minutes of each injection was diverted to waste to eliminate the presence of phosphate buffer in the enzymatic reaction. The column was run at 0.6 mL/min and a temperature of 65° C. Mass spectrometry analysis of the samples was performed on a ThermoFisher Quantum Triple quad utilizing APCI (+) as the mode of ionization. Data was acquired in Single Ion Monitoring (SIM) mode analyzing Diolein=m/z 603.6 (PRODUCT) and 1,2-distearoyl-rac-glycerol (IS)=m/z 607.6. The ratio of Diolein to internal standard (Peak Area Ratio) is utilized to calculate IC50 values.
“NT” denotes “Not tested”.

human MGAT-2, sequence (Q3SYC2 whole entry): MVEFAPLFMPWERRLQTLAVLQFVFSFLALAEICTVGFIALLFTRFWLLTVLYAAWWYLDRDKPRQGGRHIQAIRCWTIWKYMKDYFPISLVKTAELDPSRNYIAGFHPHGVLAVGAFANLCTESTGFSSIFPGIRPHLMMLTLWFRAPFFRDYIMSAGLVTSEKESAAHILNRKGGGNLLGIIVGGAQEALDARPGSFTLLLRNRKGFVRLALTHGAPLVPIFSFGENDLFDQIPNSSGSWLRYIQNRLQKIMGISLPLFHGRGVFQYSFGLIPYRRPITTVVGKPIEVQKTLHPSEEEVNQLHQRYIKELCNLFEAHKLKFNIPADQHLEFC

| SMILES | pIC50 |
| --- | --- |
| O=C1N[C@@](c2ccc(OCCCC(F)(F)F)cc2Cl)(C(F)(F)F)CC(c2ncc(C3CC3)s2)=C1c1nnn[nH]1 [Example 64] | 8.96 |
| CCc1ccc(C2=C(c3nnn[nH]3)C(=O)N[C@@](c3ccc(Br)cc3)(C(F)(F)F)C2)s1 [Example 65] | 8.06 |
| Cc1ccc(C2=C(C#N)C(=O)N[C@@](c3ccc(OCCCC(F)(F)F)cc3)(C(F)(F)F)C2)s1 [Example 67, (S)-4-(5-Methylthiophen-2-yl)-2-oxo-6-(4-(4,4,4-trifluorobutoxy)phenyl)-6-(trifluoromethyl)-1,2,5,6-tetrahydropyridine-3-carbonitrile] | 7.01 |
| N#CC1=C(c2ccc(Cl)s2)C[C@](c2ccc(OCCCC(F)(F)F)cc2)(C(F)(F)F)NC1=O [Example 68, (S)-4-(5-Chlorothiophen-2-yl)-2-oxo-6-(4-(4,4,4-trifluorobutoxy)phenyl)-6-(trifluoromethyl)-1,2,5,6-tetrahydropyridine-3-carbonitrile] | 7.52 |
| Cc1csc(C2=C(C#N)C(=O)N[C@@](c3ccc(OCCCC(F)(F)F)cc3)(C(F)(F)F)C2)c1 [Example 69, (S)-4-(4-Methylthiophen-2-yl)-2-oxo-6-(4-(4,4,4-trifluorobutoxy)phenyl)-6-(trifluoromethyl)-1,2,5,6-tetrahydropyridine-3-carbonitrile] | 6.83 |
| N#CC1=C(c2ccc(C3CC3)s2)C[C@](c2ccc(OCCCC(F)(F)F)cc2)(C(F)(F)F)NC1=O [Example 74, (S)-4-(5-Cyclopropylthiophen-2-yl)-2-oxo-6-(4-(4,4,4-trifluorobutoxy)phenyl)-6-(trifluoromethyl)-1,2,5,6-tetrahydropyridine-3-carbonitrile] | 7.82 |
| COc1ccc(NC(=O)C2=C(c3ccn(C4CC4)n3)C[C@](c3ccc(OCCCC(F)(F)F)cc3)(C(F)(F)F)NC2=O)cc1 [Example 76, (S)-4-(1-Cyclopropyl-1H-pyrazol-3-yl)-N-(4-methoxyphenyl)-2-oxo-6-(4-(4,4,4-trifluorobutoxy)phenyl)-6-(trifluoromethyl)-1,2,5,6-tetrahydropyridine-3-carboxamide] | 8.38 |

Results, then the compound that gave them:

| pIC50 | SMILES |
| --- | --- |
| 9.30 | CCc1cnc(C2=C(c3nnn[nH]3)C(=O)N[C@@](c3ccc(OCCCCCC(F)(F)F)cc3F)(C(F)(F)F)C2)s1 [Example 66] |
| 7.49 | COc1ccc(C2=C(C#N)C(=O)N[C@@](c3ccc(OCCCCC(F)(F)F)cc3)(C(F)(F)F)C2)cn1 [Example 70, (S)-6-Methoxy-2′-oxo-6′-(trifluoromethyl)-6′-(4-((5,5,5-trifluoropentyl)oxy)phenyl)-1′,2′,5′,6′-tetrahydro-[3,4′-bipyridine]-3′-carbonitrile] |
| 7.50 | Cc1ccc(C2=C(C#N)C(=O)N[C@@](c3ccc(OCCCCCC(F)(F)F)cc3)(C(F)(F)F)C2)s1 [Example 71, (S)-4-(5-Methylthiophen-2-yl)-2-oxo-6-(4-((6,6,6-trifluorohexyl)oxy)phenyl)-6-(trifluoromethyl)-1,2,5,6-tetrahydropyridine-3-carbonitrile] |
| 7.99 | COc1ccc(C2=C(C#N)C(=O)N[C@@](c3ccc(OCCCCCC(F)(F)F)cc3)(C(F)(F)F)C2)cn1 [Example 72, (S)-6-Methoxy-2′-oxo-6′-(4-((6,6,6-trifluorohexyl)oxy)phenyl)-6′-(trifluoromethyl)-1′,2′,5′,6′-tetrahydro-[3,4′-bipyridine]-3′-carbonitrile] |
| 8.82 | CCc1ccc(C2=C(NC(=O)CS(C)(=O)=O)C(=O)N[C@@](c3ccc(OCCCCCC(F)(F)F)cc3)(C(F)(F)F)C2)s1 [Example 75, (S)—N-(4-(5-Ethylthiophen-2-yl)-2-oxo-6-(4-((6,6,6-trifluorohexyl)oxy)phenyl)-6-(trifluoromethyl)-1,2,5,6-tetrahydropyridin-3-yl)-2-(methylsulfonyl)acetamide] |
| 6.28 | Cc1cnn(C2=C(C#N)C(=O)N[C@@](c3ccc(OCCCC(F)(F)F)cc3)(C(F)(F)F)C2)c1 [Example 77] |
